From the supplement of paper PMC10307832

Key:
Assay in all cases: relative viability (nuclei count vs DMSO), 5 days (fraction); higher = more cells survive
[1] = compound: CN(C)C[C@@H]1CCn2cc(c3ccccc32)C2=C(C(=O)NC2=O)c2cn(c3ccccc23)CCO1 [Ruboxistaurin] + CC1(C)CCC(c2ccc(Cl)cc2)=C(CN2CCN(c3ccc(C(=O)NS(=O)(=O)c4ccc(N[C@H](CCN5CCOCC5)CSc5ccccc5)c(S(=O)(=O)C(F)(F)F)c4)cc3)CC2)C1 [Navitoclax] (partner 0.5 µM)
Method in brief: (§1)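 The day after seeding in 1536-well plates, lung cancer cell lines were treated by pin tool with a single drug, or with a fixed anchor-drug dose together with five library-drug doses (not always all listed) in √10 steps. After 5 days, a combined fix-and-stain solution (final 0.05% Triton X-100, 1% formaldehyde, 1 ug/ml Hoechst) was added. Nuclei counted on 4× images gave relative viability as treated counts over vehicle counts, reported as the median of duplicate plates.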

[2] = compound: CN(C)C[C@@H]1CCn2cc(c3ccccc32)C2=C(C(=O)NC2=O)c2cn(c3ccccc23)CCO1 [Ruboxistaurin] + Cc1nc(Nc2ncc(C(=O)Nc3c(C)cccc3Cl)s2)cc(N2CCN(CCO)CC2)n1 [Dasatinib] (partner 0.075 µM)
Method in brief: as §1

[3] = compound: CN(C)C[C@@H]1CCn2cc(c3ccccc32)C2=C(C(=O)NC2=O)c2cn(c3ccccc23)CCO1 [Ruboxistaurin] + COc1cc2c(Oc3ccc(NC(=O)C4(C(=O)Nc5ccc(F)cc5)CC4)cc3F)ccnc2cc1OCCCN1CCOCC1 [Foretinib] (partner 0.25 µM)
Method in brief: as §1

[4] = compound: CN(C)C[C@@H]1CCn2cc(c3ccccc32)C2=C(C(=O)NC2=O)c2cn(c3ccccc23)CCO1 [Ruboxistaurin] + Nc1ncn([C@H]2C[C@H](O)[C@@H](CO)O2)c(=O)n1 [Decitabine] (partner 2 µM)
Method in brief: as §1

Ruboxistaurin + Olaparib = compound: CN(C)C[C@@H]1CCn2cc(c3ccccc32)C2=C(C(=O)NC2=O)c2cn(c3ccccc23)CCO1 [Ruboxistaurin] + O=C(c1cc(Cc2n[nH]c(=O)c3ccccc23)ccc1F)N1CCN(C(=O)C2CC2)CC1 [Olaparib] (partner 8 µM)
Method in brief: as §1

Cell Line	relative viability ([1]; first compound 0.08 µM)	relative viability ([1]; first compound 0.8 µM)	relative viability ([1]; first compound 2.53 µM)	relative viability ([1]; first compound 8 µM)	relative viability ([2]; first compound 0.08 µM)	relative viability ([2]; first compound 0.8 µM)	relative viability ([2]; first compound 2.53 µM)	relative viability ([2]; first compound 8 µM)	relative viability ([3]; first compound 0.08 µM)	relative viability ([3]; first compound 0.8 µM)	relative viability ([3]; first compound 2.53 µM)	relative viability ([3]; first compound 8 µM)	relative viability ([4]; first compound 0.08 µM)	relative viability ([4]; first compound 0.8 µM)	relative viability ([4]; first compound 2.53 µM)	relative viability ([4]; first compound 8 µM)	relative viability (Ruboxistaurin + Olaparib; first compound 0.08 µM)	relative viability (Ruboxistaurin + Olaparib; first compound 0.8 µM)	relative viability (Ruboxistaurin + Olaparib; first compound 2.53 µM)	relative viability (Ruboxistaurin + Olaparib; first compound 8 µM)
HCC-366	1.05	0.81	1.16	0.995	0.564	0.526	0.624	0.52	1.08	0.919	0.882	0.874	0.361	0.351	0.325	0.317	0.4	0.364	0.372	0.269
NCI-H1651	1.08	0.827	1.05	1.11	0.436	0.339	0.356	0.435	1.04	0.772	0.794	0.841	0.698	0.542	0.681	0.632	0.178	0.193	0.191	0.182
LC-2-ad	0.474	0.395	0.557	0.345	0.672	0.651	0.575	0.558	1.03	0.905	1.02	0.747	0.71	0.887	0.753	0.847	0.711	0.626	0.697	0.752
HCC-827	1.05	1.05	1.01	1.04	0.36	0.241	0.327	0.278	1.17	1.03	1.03	1	0.349	0.344	0.376	0.319	0.655	0.647	0.695	0.624
SK-LU-1	0.843	0.857	0.949	0.829	0.195	0.145	0.163	0.169	0.93	0.809	0.772	0.683	0.744	0.573	0.668	0.751	0.483	0.397	0.536	0.469
COR-L 105	0.741	0.64	0.776	0.807	0.352	0.236	0.362	0.262	1.37	0.826	1.1	0.87	0.618	0.595	0.681	0.611	0.802	0.597	0.707	0.677
LOU-NH91	0.846	0.58	0.738	0.692	0.612	0.503	0.56	0.528	1.02	0.879	0.898	0.944	0.909	0.772	0.855	0.775	0.926	0.87	0.941	0.949
LU99A	0.883	0.71	0.798	0.716	0.412	0.436	0.589	0.507	0.802	0.774	0.778	0.751	0.861	0.762	1.01	0.773	0.27	0.259	0.253	0.218
NCI-H1650	1.09	1.2	1.34	1.2	0.418	0.273	0.331	0.254	1.66	1.01	1.31	1.09	0.387	0.524	0.501	0.468	0.854	0.709	0.907	0.981
SW 1573	0.978	0.791	1.01	0.854	0.52	0.331	0.452	0.456	1.15	0.866	1.03	0.762	0.454	0.445	0.58	0.487	0.494	0.369	0.595	0.482
HOP-62	1.15	1	1.12	1.35	0.746	0.628	0.634	0.673	1.13	1.07	1.13	1.22	0.21	0.242	0.251	0.268	0.499	0.443	0.541	0.611
UMC-11	0.312	0.28	0.294	0.248	0.481	0.455	0.429	0.434	1.05	0.951	0.904	0.646	0.672	0.51	0.676	0.61	0.554	0.364	0.361	0.289
NCI-H1734	0.964	0.671	0.857	0.745	0.559	0.39	0.437	0.347	0.852	0.783	0.922	0.683	0.535	0.466	0.501	0.521	0.647	0.518	0.601	0.514
EKVX	0.981	0.903	1.03	0.882	0.641	0.476	0.551	0.579	0.898	0.694	0.848	0.738	0.334	0.246	0.34	0.426	0.923	0.692	0.929	0.861
HARA	1.2	1.16	1.14	1.14	0.216	0.232	0.228	0.3	0.842	0.865	0.993	0.813	0.502	0.496	0.567	0.592	1.01	0.895	0.819	0.538
